# Results as given in patent US20060069132A1, “Azolecarboxamide herbicides” (priority 2004, published 2006).
# Legend:
# [1] = system: ducksalad; assay: Test C flooded paddy test; assay type: in vivo, Heteranthera limosa
# [2] = system: rice; assay: Test B flooded paddy test; assay type: in vivo, Oryza sativa; details: 1000 g ai/ha, scale 0 to 100 (0 no effect, 100 complete control)
# Summary of the method: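 Plants grow to 1- to 4-leaf stage (2–18 cm) for postemergence spraying, or to 2-leaf stage for the paddy test. Formulated compound is applied. Greenhouse holding lasts 13–15 days. Response is scored visually relative to controls, 0 no effect to 100 complete control; a dash means no result.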
# [3] = system: lambsquarters; assay: Test B pre-/postemergence herbicide test; assay type: in vivo, Chenopodium album; details: for Lambsquarters plant response rating: postemergence
# Summary of the method: (§1)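 Pre: seeds sown, then sprayed. Post: 1–4-leaf plants (2–18 cm) sprayed at the same time. Paddy: flooded, treated at 2-leaf stage. Formulation: non-phytotoxic solvent with surfactant. Greenhouse 13–15 days; visual 0–100 score relative to controls.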
# [4] = system: barnyardgrass; assay: Test B pre-/postemergence herbicide test; assay type: in vivo, Echinochloa crus-galli; details: for Barnyardgrass plant response rating: postemergence
# Summary of the method: (§2)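 Plants compared with untreated controls 13–15 days post-treatment and given a visual 0–100 injury score. Applications: preemergence to seeds; postemergence at 1- to 4-leaf (2–18 cm); paddy species flooded, 2-leaf stage. Vehicle non-phytotoxic, surfactant included.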
# [5] = system: blackgrass; assay: Test B postemergence herbicide test; assay type: in vivo, Alopecurus myosuroides; details: postemergence
# Summary of the method: (§3)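 Formulated test chemicals went onto postemergence plants measuring 2 to 18 cm, at one to four leaves. For the paddy assay, species had reached two leaves. Scoring took place 13–15 days later by eye, relative to untreated plants, using 0 for no effect up to 100 for full control.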
# [6] = system: giant foxtail; assay: Test B pre-/postemergence herbicide test; assay type: in vivo, Setaria faberi; details: for Foxtail, Giant plant response rating: postemergence
# Summary of the method: as §1
# [7] = system: rice; assay: Test B pre-/postemergence herbicide test; assay type: in vivo, Oryza sativa; details: 0 = no effect, 100 = complete control, preemergence
# Summary of the method: as §1
# [8] = system: barnyardgrass; assay: Test C flooded paddy test; assay type: in vivo, Echinochloa crus-galli
# Summary of the method: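 After a postemergence application at 1 to 4 leaves (plants 2–18 cm high), or at 2 leaves for barnyardgrass in flooded paddy, plants stayed in the greenhouse for 12 to 14 days. Damage was then judged visually relative to control plants, with 100 indicating complete control.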
# [9] = system: morningglory; assay: Test B pre-/postemergence herbicide test; assay type: in vivo, Ipomoea coccinea; details: for Morningglory plant response rating: postemergence
# Summary of the method: as §2
# [10] = system: smallflower umbrella sedge; assay: Test C flooded paddy test; assay type: in vivo, Cyperus difformis
# [11] = system: Surinam grass; assay: Test B pre-/postemergence herbicide test; assay type: in vivo, Urochloa decumbens; details: for Surinam Grass plant response rating: postemergence
# Summary of the method: as §1
# [12] = system: pigweed; assay: Test B pre-/postemergence herbicide test; assay type: in vivo, Amaranthus retroflexus; details: for Pigweed plant response rating: postemergence
# Summary of the method: as §1
# [13] = system: cocklebur; assay: Test B pre-/postemergence herbicide test; assay type: in vivo, Xanthium strumarium; details: for Cocklebur plant response rating: postemergence
# Summary of the method: as §2
# [14] = system: wild oat; assay: Test B postemergence herbicide test; assay type: in vivo, Avena fatua; details: postemergence
# Summary of the method: (§4)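 Treated at 2-leaf (paddy) or 1–4-leaf, 2–18 cm (postemergence); greenhouse 13–15 d; visual score vs control, 0 none to 100 complete control; dash = not tested.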
# [15] = system: rice; assay: Test C flooded paddy test; assay type: in vivo, Oryza sativa
# Summary of the method: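 Injury scored visually against controls on a 0 (no effect) to 100 (complete control) scale, 12 to 14 days after treatment in greenhouse. Flooded paddy plants treated at 2-leaf stage; postemergence plants at 1- to 4-leaf stage, 2 to 18 cm tall.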
# [16] = system: corn; assay: Test B pre-/postemergence herbicide test; assay type: in vivo, Zea mays; details: for Corn plant response rating: postemergence
# Summary of the method: as §1
# [17] = system: wheat; assay: Test B postemergence herbicide test; assay type: in vivo, Triticum aestivum; parameters: key to Wheat plant response rating: 0 = no effect, 100 = complete control; details: postemergence
# Summary of the method: as §4
# [18] = system: barnyardgrass; assay: Test B flooded paddy test; assay type: in vivo, Echinochloa crus-galli; details: 1000 g ai/ha, scale 0 to 100 (0 no effect, 100 complete control)
# Summary of the method: as §3
# [19] = system: small flower umbrella sedge; assay: Test B flooded paddy test; assay type: in vivo, Cyperus difformis; details: 1000 g ai/ha, scale 0 to 100 (0 no effect, 100 complete control)
# Summary of the method: as §3
# [20] = system: ducksalad; assay: Test B flooded paddy test; assay type: in vivo, Heteranthera limosa; details: 1000 g ai/ha, scale 0 to 100 (0 no effect, 100 complete control)
# Summary of the method: as §3
# [21] = system: velvetleaf; assay: Test B pre-/postemergence herbicide test; assay type: in vivo, Abutilon theophrasti; details: for Velvetleaf plant response rating: postemergence
# Summary of the method: as §1
# [22] = system: large crabgrass; assay: Test B pre-/postemergence herbicide test; assay type: in vivo, Digitaria sanguinalis; details: for Crabgrass, Large plant response rating: postemergence
# Summary of the method: as §1
# [23] = 125 g ai/ha, scale 0 to 100 (0 no effect, 100 complete control)
# [24] = 250 g ai/ha, scale of 0 to 100, 0 is no effect, 100 is complete control
# [25] = 500 g ai/ha, visual rating after 12 to 14 days, scale 0 to 100 (0 no effect, 100 complete control)
# [26] = 125 g ai/ha, 0 = no effect, 100 = complete control, preemergence
# [27] = 125 g ai/ha, visual rating, scale 0 (no effect) to 100 (complete control)
# [28] = 500 g ai/ha, visual rating, 0 = no effect, 100 = complete control, preemergence
# [29] = 500 g ai/ha, scale 0 to 100, 0 is no effect, 100 is complete control
compound,measurement,setting,value
C#CCNC(=O)c1ccc(F)c(NC(=O)c2cc(C3(C)CC3)nn2CC)c1 [Compound 302],Ducksalad plant response rating,"[1]; 62 g ai/ha, scale 0 to 100",0
same,Ducksalad plant response rating,[1]; [23],25
same,Ducksalad plant response rating,[1]; [24],30
same,"Plant response rating, Ducksalad",[1]; [25],85
same,Rice plant response rating,[2],70
same,Lambsquarters plant response rating (0 to 100 scale),[3]; [26],0
same,Lambsquarters plant response rating,[3]; [27],60
same,"Plant response rating, Lambsquarters",[3]; [28],100
same,Lambsquarters plant response rating,[3]; [29],70
same,Barnyardgrass plant response rating (0 to 100 scale),[4]; [26],0
same,Barnyardgrass plant response rating,[4]; [27],10
same,"Plant response rating, Barnyardgrass",[4]; [28],60
same,Barnyardgrass plant response rating,[4]; [29],40
same,Blackgrass plant response rating,[5]; [27],10
same,Blackgrass plant response rating,[5]; [29],20
same,"Foxtail, Giant plant response rating (0 to 100 scale)",[6]; [26],0
same,"Foxtail, Giant plant response rating",[6]; [27],0
same,"Plant response rating, Foxtail, Giant",[6]; [28],30
same,"Foxtail, Giant plant response rating",[6]; [29],20
same,Rice plant response rating (0 to 100 scale),[7]; 125 g ai/ha,0
same,"Plant response rating, Rice","[7]; 500 g ai/ha, visual rating",10
same,Barnyardgrass plant response rating,"[8]; 62 g ai/ha, scale 0 to 100 (0 no effect, 100 complete control)",0
same,Barnyardgrass plant response rating,[8]; [23],0
same,Barnyardgrass plant response rating,[8]; [24],10
same,"Plant response rating, Barnyardgrass",[8]; [25],35
same,Morningglory plant response rating (0 to 100 scale),[9]; [26],0
same,Morningglory plant response rating,[9]; [27],30
same,"Plant response rating, Morningglory",[9]; [28],10
same,Morningglory plant response rating,[9]; [29],60
same,"Sedge, Umbrella plant response rating","[10]; 62 g ai/ha, scale 0 to 100",15
same,"Sedge, Umbrella plant response rating",[10]; [23],50
same,"Sedge, Umbrella plant response rating",[10]; [24],75
same,"Plant response rating, Sedge, Umbrella",[10]; [25],85
same,Surinam Grass plant response rating (0 to 100 scale),[11]; [26],10
same,Surinam Grass plant response rating,[11]; [27],0
same,"Plant response rating, Surinam Grass",[11]; [28],30
same,Surinam Grass plant response rating,[11]; [29],10
same,Pigweed plant response rating (0 to 100 scale),[12]; [26],100
same,Pigweed plant response rating,[12]; [27],80
same,"Plant response rating, Pigweed",[12]; [28],100
same,Pigweed plant response rating,[12]; [29],90
same,Cocklebur plant response rating (0 to 100 scale),[13]; [26],0
same,Cocklebur plant response rating,[13]; [27],10
same,"Plant response rating, Cocklebur",[13]; [28],0
same,Cocklebur plant response rating,[13]; [29],10
same,"Oat, Wild plant response rating",[14]; [27],0
same,"Oat, Wild plant response rating",[14]; [29],10
same,Rice plant response rating,"[15]; 62 g ai/ha, scale 0 to 100",0
same,Rice plant response rating,[15]; [23],0
same,Rice plant response rating,[15]; [24],0
same,"Plant response rating, Rice",[15]; [25],55
same,Corn plant response rating (0 to 100 scale),[16]; [26],0
same,Corn plant response rating,[16]; [27],10
same,"Plant response rating, Corn",[16]; [28],10
same,Corn plant response rating,[16]; [29],50
same,Wheat plant response rating,[17]; [27],0
same,Wheat plant response rating,[17]; [29],10
same,Barnyardgrass plant response rating,[18],70
same,"Sedge, Umbrella plant response rating",[19],80
same,Ducksalad plant response rating,[20],90
same,Velvetleaf plant response rating,[21]; [27],10
same,"Plant response rating, Velvetleaf",[21]; [28],80
same,Velvetleaf plant response rating,[21]; [29],10
same,"Crabgrass, Large plant response rating (0 to 100 scale)",[22]; [26],70
same,"Crabgrass, Large plant response rating",[22]; [27],0
same,"Plant response rating, Crabgrass, Large",[22]; [28],100
same,"Crabgrass, Large plant response rating",[22]; [29],10
